Data from patent US12310380B2, “Method for extending shelf-life of agricultural produce” (National Institute of Plant Genome Research, priority 2019, dated 2025).

System: Nanjungud rasbale banana
Assay: Ripening of banana: NO donors versus hypoxia-induced NO
Type: in vivo
Conditions: SNAP 100 μM, chitosan 1%
Method: Effects of using hypoxia-induced NO on fruit ripening were tested against the available NO donors such as SNP (Sodium nitroprusside), SNAP (S-Nitroso-N-acetyl-dl-penicillamine), chitosan on Nanjungud rasbale banana. Physiological concentrations of NO donors were used and the concentration for SNP used was 1 mM, SNAP was used in a concentration of 100 μM, chitosan was used in a concentration of 1%. Out of all the treatments, hypoxia-induced NO yielded better results where a significant delay of ripening was observed (Table-1). SNP and chitosan were effective up to 2 days but later they were ineffective on delaying ripening. Even after 3 days of treatment only one fruit ripened in the presence of formula in comparison to other treatments where 60% of fruits were ripened (FIG. 10). […] It was observed that the delay in ripening of bananas by the method of the present disclosure was 7 days as compared to the bananas which were not treated by the method of the present disclosure.

## CC(=O)NC(C(=O)O)C(C)(C)SN=O (racemic) [SNAP, S-Nitroso-N-acetyl-dl-penicillamine]
Day 0, SNP 1 mM
  Number of fruits ripened: 0
Day 1, SNP 1 mM
  Number of fruits ripened: 0
Day 2, SNP 1 mM
  Number of fruits ripened: 2
Day 3, SNP 1 mM
  Number of fruits ripened: 4
